# Laboratory results published in PubChem BioAssay (NCI).
#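 1) Cells in 96-well plates. 2) Compound, 48 h, 5 concentrations. 3) Linear interpolation between surrounding doses. 4) Unreached endpoint = highest concentration. At the TGI there is no net growth.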
# Experiments:
# Test in all cases: NCI-60 cell line screen, 48 h
# [1] = system: SN12C renal
# [2] = system: LXFL 529 NSCLC
# [3] = system: UACC-257 melanoma
# [4] = system: SK-MEL-5 melanoma
# [5] = system: NCI-H226 lung
# [6] = system: HCT-15 colon
# [7] = system: SK-MEL-28 melanoma
# [8] = system: SW-620 colon
# [9] = system: UO-31 renal
# [10] = system: COLO 205 colon
# [11] = system: HCC-2998 colon
# [12] = system: CAKI-1 renal
# [13] = system: SR leukemia
# [14] = system: TK-10 renal
# [15] = system: K-562 leukemia
# [16] = system: SF-268 CNS
# [17] = system: ACHN renal
# [18] = system: DMS 114 small cell lung
# [19] = system: SNB-75 CNS
# [20] = system: HCT-116 colon
# [21] = system: SK-MEL-2 melanoma
# [22] = system: A549 NSCLC
# [23] = system: EKVX NSCLC
# [24] = system: OVCAR-8 ovarian
# [25] = system: UACC-62 melanoma
# [26] = system: RXF 393 renal
# [27] = system: NCI-H23 lung
# [28] = system: IGROV1 ovarian
# [29] = system: SNB-19 CNS
# [30] = system: SF-295 CNS
# [31] = system: RPMI-8226 leukemia
# [32] = system: MOLT-4 leukemia
# [33] = system: SK-OV-3 ovarian
# [34] = system: 786-0 renal
# [35] = system: MALME-3M melanoma
# [36] = system: KM12 colon
# [37] = system: OVCAR-5 ovarian
# [38] = system: KM20L2 colon
# [39] = system: HT29 colon
# [40] = system: SF-539 CNS
# [41] = system: DMS 273 small cell lung
# [42] = system: OVCAR-3 ovarian
# [43] = system: U251 CNS
# [44] = system: M19-MEL melanoma
# [45] = system: SNB-78 CNS
# [46] = system: CCRF-CEM leukemia
# [47] = system: HL-60(TB) leukemia
# [48] = system: BT-549 breast
# [49] = system: NCI/ADR-RES ovarian
# [50] = system: NCI-H460 lung
# [51] = system: M14 melanoma
# [52] = system: T-47D breast
# [53] = system: A498 renal
# [54] = system: MCF7 breast
# [55] = system: MDA-MB-435
# [56] = system: NCI-H522 lung
# [57] = system: OVCAR-4 ovarian
# [58] = system: HOP-62 NSCLC
# [59] = system: MDA-MB-231 breast
# [60] = system: HOP-92 NSCLC
# [61] = system: LOX IMVI melanoma
# [62] = system: PC-3 prostate
# [63] = system: HS 578T breast
# [64] = system: MDA-N
# [65] = system: DU-145 prostate
structure (smiles),measurement,setting,value
COc1ccc2c(c1)OCCCN(C)OC2c1ccccc1 (configuration not stated),TGI,[1],> 100 µM
same,TGI,[2],> 100 µM
same,TGI,[3],> 100 µM
same,TGI,[4],> 100 µM
same,TGI,[5],> 100 µM
same,TGI,[6],> 100 µM
same,TGI,[7],> 100 µM
same,TGI,[8],> 100 µM
same,TGI,[9],> 100 µM
same,TGI,[10],> 100 µM
same,TGI,[11],> 100 µM
same,TGI,[12],> 100 µM
same,TGI,[13],> 100 µM
same,TGI,[14],> 100 µM
same,TGI,[15],> 100 µM
same,TGI,[16],> 100 µM
same,TGI,[17],> 100 µM
same,TGI,[18],> 100 µM
same,TGI,[19],> 100 µM
same,TGI,[20],> 100 µM
same,TGI,[21],> 100 µM
same,TGI,[22],> 100 µM
same,TGI,[23],> 100 µM
same,TGI,[24],> 100 µM
same,TGI,[25],> 100 µM
same,TGI,[26],> 100 µM
same,TGI,[27],> 100 µM
same,TGI,[28],> 100 µM
same,TGI,[29],> 100 µM
same,TGI,[30],> 100 µM
same,TGI,[31],> 100 µM
same,TGI,[32],> 100 µM
same,TGI,[33],> 100 µM
same,TGI,[34],> 100 µM
same,TGI,[35],> 100 µM
same,TGI,[36],> 100 µM
same,TGI,[37],> 100 µM
same,TGI,[38],> 100 µM
same,TGI,[39],> 100 µM
same,TGI,[40],> 100 µM
same,TGI,[41],> 100 µM
same,TGI,[42],> 100 µM
same,TGI,[43],> 100 µM
same,TGI,[44],> 100 µM
same,TGI,[45],> 100 µM
COc1ccc(-c2c(C#N)c(=O)nc(SC)n2C2OCC(OC(C)=O)C(OC(C)=O)C2OC(C)=O)cc1 (configuration not stated),TGI,[1],> 100 µM
same,TGI,[3],> 100 µM
same,TGI,[4],> 100 µM
same,TGI,[5],> 100 µM
same,TGI,[46],> 100 µM
same,TGI,[6],> 100 µM
same,TGI,[7],> 100 µM
same,TGI,[8],> 100 µM
same,TGI,[9],> 100 µM
same,TGI,[10],> 100 µM
same,TGI,[11],> 100 µM
same,TGI,[12],> 100 µM
same,TGI,[13],53.3 µM
same,TGI,[14],> 100 µM
same,TGI,[15],> 100 µM
same,TGI,[47],> 100 µM
same,TGI,[16],> 100 µM
same,TGI,[17],> 100 µM
same,TGI,[48],> 100 µM
same,TGI,[19],> 100 µM
same,TGI,[49],> 100 µM
same,TGI,[20],> 100 µM
same,TGI,[50],> 100 µM
same,TGI,[21],> 100 µM
same,TGI,[51],> 100 µM
same,TGI,[22],> 100 µM
same,TGI,[23],> 100 µM
same,TGI,[52],> 100 µM
same,TGI,[53],> 100 µM
same,TGI,[54],> 100 µM
same,TGI,[24],> 100 µM
same,TGI,[55],> 100 µM
same,TGI,[25],> 100 µM
same,TGI,[56],> 100 µM
same,TGI,[26],> 100 µM
same,TGI,[27],> 100 µM
same,TGI,[28],> 100 µM
same,TGI,[29],> 100 µM
same,TGI,[30],> 100 µM
same,TGI,[57],> 100 µM
same,TGI,[58],> 100 µM
same,TGI,[59],> 100 µM
same,TGI,[31],> 100 µM
same,TGI,[32],> 100 µM
same,TGI,[33],> 100 µM
same,TGI,[34],> 100 µM
same,TGI,[35],> 100 µM
same,TGI,[36],> 100 µM
same,TGI,[60],> 100 µM
same,TGI,[37],> 100 µM
same,TGI,[61],> 100 µM
same,TGI,[39],> 100 µM
same,TGI,[62],> 100 µM
same,TGI,[40],> 100 µM
same,TGI,[42],> 100 µM
same,TGI,[63],> 100 µM
same,TGI,[43],> 100 µM
same,TGI,[64],> 100 µM
same,TGI,[65],> 100 µM
CC(C)(C)c1ccc(S(=O)(=O)N2C(c3cccc(C4CC[C@@H](C(=O)O)N4S(=O)(=O)c4ccc(C(C)(C)C)cc4)c3)CC[C@H]2C(=O)O)cc1 (some centres not stated),TGI,[1],> 100 µM
same,TGI,[3],> 100 µM
same,TGI,[4],> 100 µM
same,TGI,[5],> 100 µM
same,TGI,[46],> 100 µM
same,TGI,[6],> 100 µM
same,TGI,[7],> 100 µM
same,TGI,[8],> 100 µM
same,TGI,[9],87.3 µM
same,TGI,[10],> 100 µM
same,TGI,[11],> 100 µM
same,TGI,[12],> 100 µM
same,TGI,[13],> 100 µM
same,TGI,[14],> 100 µM
same,TGI,[15],> 100 µM
same,TGI,[47],> 100 µM
same,TGI,[16],> 100 µM
same,TGI,[17],> 100 µM
same,TGI,[48],> 100 µM
same,TGI,[19],> 100 µM
same,TGI,[49],> 100 µM
same,TGI,[20],> 100 µM
same,TGI,[50],> 100 µM
same,TGI,[21],> 100 µM
same,TGI,[51],> 100 µM
same,TGI,[22],> 100 µM
same,TGI,[23],> 100 µM
same,TGI,[52],> 100 µM
same,TGI,[53],> 100 µM
same,TGI,[54],> 100 µM
same,TGI,[24],> 100 µM
same,TGI,[55],> 100 µM
same,TGI,[25],> 100 µM
same,TGI,[56],> 100 µM
same,TGI,[26],> 100 µM
same,TGI,[27],> 100 µM
same,TGI,[28],> 100 µM
same,TGI,[29],> 100 µM
same,TGI,[30],> 100 µM
same,TGI,[57],> 100 µM
same,TGI,[58],> 100 µM
same,TGI,[59],> 100 µM
same,TGI,[31],> 100 µM
same,TGI,[32],> 100 µM
same,TGI,[33],> 100 µM
same,TGI,[34],> 100 µM
same,TGI,[35],> 100 µM
same,TGI,[36],> 100 µM
same,TGI,[60],> 100 µM
same,TGI,[37],> 100 µM
same,TGI,[61],> 100 µM
same,TGI,[39],> 100 µM
same,TGI,[62],> 100 µM
same,TGI,[40],> 100 µM
same,TGI,[42],> 100 µM
same,TGI,[63],> 100 µM
same,TGI,[43],> 100 µM
same,TGI,[64],> 100 µM
same,TGI,[65],> 100 µM
COC(=O)CN1Cc2cc(C)cc(c2O)CN(CC(=O)OC)Cc2cc(C)cc(c2O)CN(CC(=O)OC)Cc2cc(C)cc(c2O)C1,TGI,[1],> 100 µM
same,TGI,[3],> 100 µM
same,TGI,[4],> 100 µM
same,TGI,[5],> 61.3 µM
same,TGI,[46],> 100 µM
same,TGI,[6],> 100 µM
same,TGI,[7],> 100 µM
same,TGI,[8],> 100 µM
same,TGI,[9],> 100 µM
same,TGI,[10],> 100 µM
same,TGI,[11],> 100 µM
same,TGI,[12],> 100 µM
same,TGI,[13],> 100 µM
same,TGI,[14],> 100 µM
same,TGI,[15],> 100 µM
same,TGI,[47],> 100 µM
same,TGI,[16],> 100 µM
same,TGI,[17],> 100 µM
same,TGI,[48],> 100 µM
same,TGI,[19],> 74.7 µM
same,TGI,[49],> 100 µM
same,TGI,[20],> 100 µM
same,TGI,[50],> 100 µM
same,TGI,[21],> 77.1 µM
same,TGI,[51],> 86.6 µM
same,TGI,[22],> 100 µM
same,TGI,[23],> 100 µM
same,TGI,[52],> 68.5 µM
same,TGI,[53],> 84.3 µM
same,TGI,[54],> 96.3 µM
same,TGI,[24],> 100 µM
same,TGI,[55],> 100 µM
same,TGI,[25],> 100 µM
same,TGI,[56],> 100 µM
same,TGI,[26],> 75 µM
same,TGI,[27],> 100 µM
same,TGI,[28],> 100 µM
same,TGI,[29],> 100 µM
same,TGI,[30],> 100 µM
same,TGI,[57],> 100 µM
same,TGI,[58],> 100 µM
same,TGI,[59],> 77.2 µM
same,TGI,[31],> 100 µM
same,TGI,[32],> 100 µM
same,TGI,[33],> 100 µM
same,TGI,[34],> 100 µM
same,TGI,[35],> 100 µM
same,TGI,[36],> 100 µM
same,TGI,[60],> 100 µM
same,TGI,[37],> 100 µM
same,TGI,[61],> 100 µM
same,TGI,[39],> 100 µM
same,TGI,[62],> 73.7 µM
same,TGI,[40],> 100 µM
same,TGI,[42],> 100 µM
same,TGI,[63],> 100 µM
same,TGI,[43],> 100 µM
same,TGI,[64],> 100 µM
same,TGI,[65],> 100 µM
